Measured values taken from patent US20060183909A1, “Compositions derived from quinoline and quinoxaline, preparation and use thereof” (priority 2001, published 2006).
“Also recorded” adds a separate entry of the source. Where two headings read alike, the source gives them in different places.

Assays:
[1] = tested on: xanthurenic acid receptor; assay: Screening: displacement of [3H]-XA binding to synaptic membranes at a fixed concentration; settings: for % inhibition of XA binding at 10 μM*: compound at 10 μM; for % inhibition of XA binding at 10 μM* / % inhibition of XA binding at 50 μM*: 200 nM [3H]-XA, synaptic membranes, xanthurenic acid set arbitrarily to 100%; for % inhibition of XA binding at 50 μM*: compound at 50 μM
Method: If this concentration produces the same or greater displacement than the same concentration of non-radiolabelled XA, then an IC50 is determined. […] The incubation time is 25 min. […] The filters are placed in scintillation vials to which 5 ml of Rotiszint® (Roth) are added and the vials are counted in a Beckman LS6000sc liquid scintillation counter. Specific binding is given as the difference between total binding and nonspecific binding. The percentage inhibition of binding that the synthetic compounds produce is calculated for each compound in relation to its positive control.

[2] = target: xanthurenic acid receptor; assay: Competition protocol, IC50 determination against [3H]-XA binding on synaptic membranes
Method: Binding is carried out in 50 mM Pipes buffer pH 7.4 at 0° C. […] If the compound reversibly binds to the binding site of [^3H]-XA, the two ligands will compete with each other and a binding displacement curve for [^3H]-XA can be plotted against the concentration of the competitor molecule. The incubation time is 25 minutes, followed by filtration.

[3] = tested on: xanthurenic acid receptor; assay: In vitro electrophysiology experiments, block of xanthurenic acid effects; assay type: cell-based
[4] = tested on: xanthurenic acid receptor; assay: In vivo studies of stereotypic behaviors, block of xanthurenic acid effects
[5] = single value, inhibition of binding of 200 nM [3H]-XA, synaptic membranes, read-out: IC50
[6] = two site binding model, second (higher) IC50, 200 nM [3H]-XA, synaptic membranes, read-out: IC50 (μM), second of two values

| % inhibition of XA binding at 10 μM* [1] [%] | SMILES | further results |
| --- | --- | --- |
| 163 | O=C(O)c1cc(O)c2c(Cl)cc(Cl)c(O)c2n1 [Compound 3i, 4,8-dihydroxy-5,7-dichloro-quinoline-2-carboxylic acid] | % inhibition of XA binding at 50 μM* [1]: 80%; IC50 [2, 5]: 4.6 µM |
| 163.1 | O=C(O)c1cc(O)c2cc(-c3ccccc3)cc(O)c2n1 [Compound 19f, 4,8-dihydroxy-6-pheenyl-quinoline-2-carboxylic acid] | IC50 [2, 5]: 5.2 µM |
| – | O=C(O)c1ccc2cccc(O)c2n1 | IC50 ([2]; two site binding model, first (lower) IC50, 200 nM [3H]-XA, synaptic membranes, read-out: IC50 (μM), first of two values): 0.09 µM; IC50 [2, 6]: 12.3 µM |
| – | Nc1cccc2c(O)cc(C(=O)O)nc12 [Compound 3u, 4-hydroxy-8-amino-quinoline-2-carboxylic acid] | effect on xanthurenic acid binding, in words [1]: quite potent inhibitor of xanthurenic acid binding; also recorded: potent inhibitors of XA binding to its site; % inhibition of XA binding at 50 μM* [1]: 106%; IC50 [2, 5]: 14.6 µM; effect on xanthurenic acid effects in vitro (electrophysiology) [3]: blocks the effects of xanthurenic acid without displaying an intrinsic effect; effect on xanthurenic acid effects in vivo (stereotypic behaviors) [4]: blocks the effects of xanthurenic acid without displaying an intrinsic effect |
| 0 | CC(=O)Nc1cccc2c(O)cc(C(=O)O)nc12 [Compound 28a, 8-acetylamino-4-hydroxy-quinoline-2-carboxylic acid] | – |
| 1.8 | O=C(O)c1cc(O)c2c(-c3ccccc3)ccc(O)c2n1 [Compound 19a, 4,8-dihydroxy-5-phenyl-quinoline-2-carboxylic acid] | – |
| 120 | NCCCc1cc(N)c2nc(C(=O)O)cc(O)c2c1 [Compound 121c, 6-(3′-aminopropyl)-8-amino-4-hydroxy-quinoline-2-carboxylic acid] | – |
| 0 | Cc1cc(N)c2nc(C(=O)O)cc(O)c2c1 [Compound 3w, 4-hydroxy-6-methyl-8-amino-quinoline-2-carboxylic acid] | – |
| 97 | Cl.O=C(O)c1cc(O)c2cc(C3CCCCN3)cc(O)c2n1 (centres unmarked) [Compound 61b, 4,8-dihydroxy-6-piperidin-2-yl-quinoline-2-carboxylic acid hydrochloride] | – |
| – | Cc1ccc(S(=O)(=O)Nc2cc(C(=O)O)nc3c(O)cccc23)cc1 [Compound 16a, 8-hydroxy-4-(toluene-4-sulfonylamino)-quinoline-2-carboxylic acid] | % inhibition of XA binding at 50 μM* [1]: 77% |
| 54.5 | COc1ccc(-c2cc(O)c3nc(C(=O)O)cc(O)c3c2)cc1 [Compound 19g, 4,8-dihydroxy-6-(4-methoxy-phenyl)-quinoline-2-carboxylic acid] | – |
| 109 | CN1CCN(c2cc(N)c3nc(C(=O)O)cc(O)c3c2)CC1.Cl [Compound 124b, 6-N-(N-methylpiperazinyl)-8-amino-4-hydroxy-quinoline-2-carboxylic acid hydrochloride] | – |
| 183 | Cl.O=C(O)c1cc(N2CCNCC2)c2cccc(O)c2n1 [Compound 87c, 8-hydroxy-4-(piperazin-1-yl)-quinoline-2-carboxylic acid hydrochloride] | – |
| 54 | O=C(O)c1cc(O)c2cc(CCc3ccccc3)cc(O)c2n1 [Compound 22a, 4,8-dihydroxy-6-phenethyl-quinoline-2-carboxylic acid] | – |
| 0 | Nc1cccc2ccc(C(=O)O)nc12 [Compound 4f, 8-amino-quinoline-2-carboxylic acid] | – |
| 94.5 | O=C(O)c1cc(-c2ccccc2)c2cccc(O)c2n1 [Compound 10b, 8-hydroxy-4-phenyl-quinoline-2-carboxylic acid] | – |
| 109 | O=C(O)c1cc(O)c2cccc(CCc3ccccc3)c2n1 [Compound 111c, 4-hydroxy-8-phenylethyl-quinoline-2-carboxylic acid] | – |
| 58.1 | CCCc1cc(O)c2nc(C(=O)O)cc(O)c2c1 [Compound 19r, 4,8-dihydroxy-6-propyl-quinoline-2-carboxylic acid] | – |

| % inhibition of XA binding at 10 μM* [1] [%] | SMILES | further results |
| --- | --- | --- |
| 94 | Cl.O=C(O)c1cc(O)c2cccc(-c3nn[nH]n3)c2n1 [Compound 62b, 4-hydroxy-8-(2H-tetrazol-5-yl)-quinoline-2-carboxylic acid hydrochloride] | – |
| 42 | O=C(O)c1cc(O)c2c(Br)ccc(O)c2n1 [Compound 3c, 4,8-dihydroxy-5-bromo-quinoline-2-carboxylic acid] | – |
| 120 | O=C(O)c1cc(O)c2cccc(OCc3ccccc3)c2n1 [Compound 3y, 4-hydroxy-8-benzyloxy-quinoline-2-carboxylic acid] | – |
| 112 | Cl.O=C(O)c1cc(O)c2cccc(Nc3ccccn3)c2n1 [Compound 109b, 4-hydroxy-8-(pyridin-2-yl-amino)-quinoline-2-carboxylic acid hydrochloride] | – |
| 84 | O=C(O)c1cc(O)c2c(CO)ccc(O)c2n1 [Compound 3g, 4,8-dihydroxy-5-hydroxymethyl-4-quinoline-2-carboxylic acid] | – |
| 40 | Cl.O=C(O)c1cc(O)c2cccc(N3CCOCC3)c2n1 [Compound 104b, 4-hydroxy-8-(morpholin-1-yl)-quinoline-2-carboxylic acid hydrochloride] | – |
| 0 | CC(C)(C)C(=O)Nc1cccc2c(O)cc(C(=O)O)nc12 [Compound 28b, 8-pivaloylamino-4-hydroxy-quinoline-2-carboxylic acid] | – |
| – | O=C(O)c1cc(O)c2cc(Br)cc(O)c2n1 [Compound 3k, 4,8-dihydroxy-6-bromo-quinoline-2-carboxylic acid] | IC50 [2, 5]: 12 µM |
| 94 | O=C(O)c1cc(O)c2c(C(F)(F)F)ccc(O)c2n1 [Compound 98c, 4,8-dihydroxy-5-trifluoromethyl-quinoline-2-carboxylic acid] | – |
| 66 | Nc1cc(CCc2ccccc2)cc2c(O)cc(C(=O)O)nc12 [Compound 118c, 6-phenylethyl-8-amino-4-hydroxy-quinoline-2-carboxylic acid] | – |
| 7.7 | Nc1cc(C(=O)O)nc2c(N)cccc12 [17'b, 4,8-diamino-quinoline-2-carboxylic acid] | – |
| 17 | Cl.Nc1cccc2c(CCCO)cc(C(=O)O)nc12 [Compound 96c, 8-amino-4-(3-hydroxy-prop-1-yl)-quinoline-2-carboxylic acid hydrochloride] | – |
| 94 | O=C(O)c1cc(O)c2cccc(F)c2n1 [Compound 36c, 8-fluoro-4-hydroxy-quinoline-2-carboxylic acid] | – |
| 60 | Nc1cc(O)cc2c(O)cc(C(=O)O)nc12 [Compound 79d, 6-hydroxy-8-amino-4-hydroxy-quinoline-2-carboxylic acid] | – |
| 6 | Cl.Nc1ccc(N2CCCCC2)c2c(O)cc(C(=O)O)nc12 [Compound 77c, 5-(piperidin-1-yl)-8-amino-4-hydroxy-quinoline-2-carboxylic acid hydrochloride] | – |
| 143 | O=C(O)c1nc2c(O)cccc2c(O)c1Br [Compound 52c, 3-bromo-4,8-dihydroxy-quinoline-2-carboxylic acid] | – |
| 103 | O=C(O)c1cc(O)c2ccc(CCc3ccccc3)c(O)c2n1 [Compound 55b, 4,8-dihydroxy-7-phenethyl-quinoline-2-carboxylic acid] | – |

| SMILES | % inhibition of XA binding at 10 μM* [1] [%] | further results |
| --- | --- | --- |
| O=C(O)c1cc(O)c2cccc(O)c2n1 [Xanthurenic acid, reference compound] | 100 | % inhibition of XA binding at 50 μM* [1]: 100%; IC50 ([2]; competition between [3H]-XA and non-radiolabelled XA, read-out: IC50, first site of two site binding model): 0.3 µM; IC50 [2, 6]: 57 µM |
